# Marks after values point to notes of the source that are not given here.
# Experiments:
# [1] = assay type: in vitro ADME
# in vitro = in vitro ADME
# [2] = test system: a number of different viruses; settings: cited from earlier work
# MeV-Edm = assay: microbe, parasite or virus in culture; assay type: cell-based; settings: Measles morbillivirus, read-out: EC50 against MeV strain Edmonston
smiles,measurement,setting,value
Cn1c(S(=O)(=O)Cc2ccccc2)nc(-c2ccccc2)c1-c1ccccc1 [Compound 13b],S9 stability T1/2 hamster,[1],<2.5^b min
same,"metabolite peak in LC-MS, % of total area","in vitro; human, 20 min, 100 μM",91%
same,half-life,"in vitro; human, s9",2 to 12 min
same,S9 stability T1/2 human,in vitro; s9,2-12^b min
Cn1c(S(=O)(=O)Cc2ccc(F)cc2)nc(-c2ccc(F)cc2)c1-c1ccc(F)cc1 [Compound 13c],S9 stability T1/2 hamster,[1],<2.5^b min
C#CCn1c([S+](=O)([O-])Cc2ccc(F)cc2)nc(-c2ccccc2)c1-c1ccccc1 [Compound 3],S9 stability T1/2 hamster,[1],<2.5 min
O=S(=O)(Cc1ccccc1)c1nc(-c2ccccc2)c(-c2ccccc2)[nH]1 [Compound 13a],S9 stability T1/2 hamster,[1],<2.5 min
COc1ccc(-n2c(SC(C)C(=O)Nc3ccc(C)cc3Cl)nc3ccccc32)cc1 (stereo not drawn) [Compound 1],activity against a number of different viruses in cell culture,[2],low nanomolar activity
CN(Cc1nc(-c2ccccc2)c(-c2ccccc2)n1C)c1ccccc1 [Compound 28a],EC50,MeV-Edm,810 nM

# From article PMC3743129 (ACS medicinal chemistry letters, 2013)
